In patent publication US7662382B2, “Inducible ligand for α1β1 integrin and uses” (Boys Town National Research Hospital, priority 2002, dated 2010):

Assays:
[1] = system: primary kidney endothelial cell cultures; experiment: Binding of Alexa-568-conjugated α1β1 integrin to treated primary kidney endothelial cells; type: cell-based, mouse
Protocol: Primary endothelial cells were isolated from wild type mouse kidneys using anti-CD31 coated metallic beads. Cells were cultured in endothelial cell medium (DMEM/F12, 50 μg/ml Endothelial mitogen, 1% penicillin/streptomycin, 20 mM L-Glutamine, and 1 U/mL heparin prepared fresh not filtered) containing 20% FCS. Thirty-two wells of 5×10^4 cells/well in a 96 well plate coated with 1% gelatin in sterile PBS were set up. Cells were maintained in endothelial cell media with 20% FCS until cells reached confluence. Confluent cells were washed with HBSS, then covered with endothelial cell media without serum at 200 μL/well and kept in a humidified chamber at 37° C., 5% CO2. Twenty-four hours later fresh endothelial cell medium was added without serum and various concentrations of MCP-1 and H2O2 were added at 24 or 48 hours (hrs) prior to conducting the assay for cell binding to α1β1 integrin as shown in the following Table 1.

[2] = system: renal cortical vascular endothelium; experiment: Binding of Alexa 568-labeled purified α1β1 integrin to kidney vascular endothelium after tail vein injection; type: in vivo, mouse; conditions: 24 hours after tail vein injection
Excerpt: If such a direct role exists, there must be a ligand for α1β1 integrin on the renal cortical vascular endothelium of Alport mice that is absent on normal mice. To test for the presence of such a ligand, purified α1β1 integrin (purchased from Chemicon, Temecula, Calif.) was labeled with Alexa 568, and the labeled integrin injected into the tail vein of normal, Alport, and DKO mice. Twenty-four hours following the injection, kidneys were harvested, and cryosections examined. […] Since monocytes phagocytize labeled dextrans, what is interpreted as integrin might be phagocytized integrin in monocytes.

[3] = molecular target: T1, ligand for α1β1 integrin on endothelial cells (Collagen XIII) (Mus musculus, UniProt Q9R1N9); experiment: Monocyte efflux into the interstitium of Alport kidneys after injection of purified α1β1 integrin (Alexa 568 dextran trafficking); type: in vivo; conditions: Alport mice, 5 μg purified α1β1 integrin into tail vein daily from one day before labeled dextrans, kidneys three days after dextrans, vs untreated Alport mice
T1 construct: from tissue; host or cells: vascular endothelium of kidneys of living Alport (collagen IV α3 -/-) mice
T1 sequence (Q9R1N9 whole entry): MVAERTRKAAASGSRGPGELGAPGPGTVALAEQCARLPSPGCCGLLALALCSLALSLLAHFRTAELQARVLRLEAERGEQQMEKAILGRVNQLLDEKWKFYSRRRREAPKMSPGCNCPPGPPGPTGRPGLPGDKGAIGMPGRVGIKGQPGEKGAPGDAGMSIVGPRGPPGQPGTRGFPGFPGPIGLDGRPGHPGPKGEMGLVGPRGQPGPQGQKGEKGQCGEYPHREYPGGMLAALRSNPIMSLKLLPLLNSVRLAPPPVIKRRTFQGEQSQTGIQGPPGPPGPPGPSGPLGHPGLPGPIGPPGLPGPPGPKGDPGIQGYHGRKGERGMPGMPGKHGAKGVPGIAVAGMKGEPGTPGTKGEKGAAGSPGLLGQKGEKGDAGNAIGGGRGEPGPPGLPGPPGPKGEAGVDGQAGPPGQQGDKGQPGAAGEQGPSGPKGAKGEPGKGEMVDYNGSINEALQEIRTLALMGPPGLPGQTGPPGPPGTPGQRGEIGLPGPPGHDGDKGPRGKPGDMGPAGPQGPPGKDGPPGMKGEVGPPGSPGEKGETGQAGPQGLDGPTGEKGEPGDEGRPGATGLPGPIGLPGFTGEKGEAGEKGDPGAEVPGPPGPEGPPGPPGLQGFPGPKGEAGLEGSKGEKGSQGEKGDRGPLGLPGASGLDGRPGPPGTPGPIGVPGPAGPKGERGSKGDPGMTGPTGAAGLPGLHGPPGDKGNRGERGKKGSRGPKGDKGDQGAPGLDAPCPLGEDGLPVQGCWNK
Excerpt: Male wild type 129SV and 129SVJ mice (4-12 weeks old) along with collagen IV α3 (−/−) (Alport: 5-8 weeks old) and collagen IV α3 (−/−)/integrin α1 (−/−) double knock out (DKO: 8-12 weeks old) mice were tail vein injected with […] of Alexa 568 labeled dextran reconstituted in 100 microliters (μL) Hanks Balanced Salt Solution (pH 7.2). Three days post injection animals were given a lethal injection of averitin (0.55 grams per kilogram (g/kg) body weight; ip) followed by cardiac perfusion with ice cold PBS. Kidneys were removed and immersed in increasing concentrations of ice cold sucrose (30% max) then embedded in Tissue Tek OCT mounting medium (Sakura Finetek USA, Inc., Torrence, Calif.) and stored at −80° C.
Fresh frozen tissue sections (4 μm) were fixed in 2% paraformaldehyde for 5 minutes and allowed to dry overnight at 4° C. followed by extended storage at −20° C. or immunohistochemical detection of monocytes using rat monoclonal α-CD11b (Cedar Lane laboratories, Hornby, Ontario) and Goat anti rat Alexa 488 (Molecular Probes, Inc. Eugene, Oreg.) antibodies at 1:100 and 1:200 dilutions respectively. Sections were cover slipped with vectorshield mounting medium (Vector Corp. Burlingme, Calif.). […] Green fluorescence alone as well as co-localized dual fluorescence were measured using Image Pro Plus software (Media Cybernetics, Inc. Silver Spring, Md.). […]

[4] = Pilot stability study with Alexa-conjugated integrin α1β1; conditions: Alexa-conjugated integrin α1β1, data not shown
Protocol: In an attempt to provide a more definitive test for the function of α1β1 in monocyte efflux into diseased kidneys, 5 μg of purified α1β1 integrin was injected into the tail vein of Alport mice daily, starting one day before injection of labeled dextrans, and kidneys harvested three days following injection of dextrans. Pilot studies with Alexa-conjugated integrin α1β1 were conducted to assess the stability prior to the blocking experiments. […] If transendothelial migration of monocytes into the interstitial space is mediated, in part, through binding a ligand on endothelial cells, a decrease in labeled monocytes in Alport mice treated with α1β1 integrin compared to untreated age-matched Alport mice should be observed, since the purified integrin should occupy ligand, making less available for binding to monocytes.

## OO [hydrogen peroxide, reference compound]
[1]; cells treated with hydrogen peroxide (24 or 48 hrs), concentration and time-dependent
  binding of Alexa-conjugated α1β1 integrin to cultured primary kidney endothelial cells: promotes the binding

## MCP-1: recombinant monocyte chemo-attractive protein-1, a chemokine
[1]; cells pre-treated with recombinant MCP-1 (24 or 48 hrs) vs untreated cells, time and dose dependent
  adhesion of α1β1 integrin to endothelial cells: significantly elevated adhesion

## purified α1β1 integrin: purified human α1β1 integrin purchased from Chemicon, Temecula, Calif.; also used labeled with Alexa 568
[2]; Alport mice
  labeling of kidney cryosections by Alexa 568-labeled integrin: strong labeling in the vascular endothelium
[2]; normal (control) mice
  labeling of kidney cryosections by Alexa 568-labeled integrin: absence of label
[3]
  monocyte efflux (Alexa-labeled CD11b-positive monocytes in the interstitium): a trend for a reduction in monocyte efflux
[4]
  stability of the purified integrin: at least 72 hours
